Read-outs that look alike come from different tables or passages of the source.
Assays:
[1] = system: murine leukemia L1210, human lymphocyte CEM, and HeLa cells; test: Cytostatic activity against L1210, CEM and HeLa cells; format: cell-based
Description: The cytostatic effects of the test compounds on murine leukemia cells (L1210), human T-lymphocyte cells (CEM) and human cervix carcinoma cells (HeLa) were evaluated as follows: an appropriate number of cells suspended in growth medium were allowed to proliferate in 200-μL-wells of 96-well-microtiter plates in the presence of variable amounts of test compounds at 37° C. in a humidified CO2-controlled atmosphere. After 48 h (L1210), 72 h (CEM) or 96 h (HeLa), the number of cells was counted in a Coulter counter. The IC50 value is defined as the concentration required to inhibit cell proliferation by 50%.

HEL cell = HEL cell effects: cell morphology (minimum cytotoxic concentration); conditions: minimum cytotoxic concentration causing microscopically detectable alteration of cell morphology
[2] = system: p53KO HCT116 cancer cell line; test: GI50 against p53KO HCT116 cancer cell line; conditions: Homo sapiens, HCT-116, 96 h, read-out: GI50 p53KO
[3] = system: paclitaxel-resistant (PTX10) ovarian cancer cell line; test: GI50 against paclitaxel-resistant ovarian cancer cell line PTX10; conditions: PTX10, 96 h, read-out: GI50 PTX10
[4] = system: ovarian (1A9) cancer cell line; test: GI50 against ovarian cancer cell line 1A9; conditions: 96 h, read-out: GI50 1A9
[5] = system: paclitaxel-resistant (PTX22) ovarian cancer cell line; test: GI50 against paclitaxel-resistant ovarian cancer cell line PTX22; conditions: 96 h, read-out: GI50 PTX22
CMV Davis strain = test: Anti-CMV activity in HEL cell cultures, Davis strain; format: cell-based, cytomegalovirus; conditions: Human betaherpesvirus 5; HEL cell cultures; reduce virus plaque formation by 50%; virus input 100 PFU
[6] = system: colorectal (HCT116) cancer cell line; test: GI50 against colorectal cancer cell line HCT116; conditions: Homo sapiens, HCT-116, 96 h, read-out: GI50 HCT116
CMV AD-169 strain = test: Anti-CMV activity in HEL cell cultures, AD-169 strain; format: cell-based, cytomegalovirus; conditions: Human betaherpesvirus 5, AD169; HEL cell cultures; reduce virus plaque formation by 50%; virus input 100 PFU

With `OC[C@H]1O[C@@H](n2cnc3c(N4CCOCC4)nc(-n4cc(-c5ccccc5)nn4)nc32)[C@@H](O)C1O` (stereo partly drawn) [Compound 34, 6-(Morpholin-4-yl)-2-(4-phenyl-1,2,3-triazol-1H-yl)-9-(β-D-ribofuranosyl)purine] the “cytostatic activity (in words)” value ([1]; L1210, CEM, HeLa) was “poorly cytostatic”, the IC50 ([1]; range over L1210 (48 h), CEM (72 h), HeLa (96 h)) was 98 to 185 µM and the “HEL cell effects cell morphology (MDC)” value (HEL cell) was 240 μM. For the same molecule, the GI50 [2] was 10.4 µM, the GI50 [3] was 11.7 µM and the “minimum detectable morphology-altering (cytotoxic) concentration (MCC)” value (“minimum detectable morphology-altering” below) (feline kidney CRFK) was 83 μM. The GI50 [4] was 0.18 µM, the GI50 [5] was 0.95 µM and the EC50 (CMV Davis strain) was over 40 µM. The GI50 [6] was 3.7 µM, the EC50 (CMV AD-169 strain) was over 40 µM and the “minimum detectable morphology-altering” value (canine kidney MDCK) was 8.3 μM. For the same molecule, the “minimum detectable morphology-altering” value (HeLa; HeLa (first mention)) was 42 μM, the “minimum detectable morphology-altering” value (HeLa; HeLa cells) was at least 40 μM and the “minimum detectable morphology-altering” value (green monkey kidney Vero) was 210 μM.

— patent US9040498B2, “1,2,3-Triazolyl purine derivatives” (RESEARCH FOUNDATION OF THE CITY UNIVERSITY OF NEW YORK, priority 2012, dated 2015)
